Laboratory results reported in ChEMBL document CHEMBL4296182, “CO-ADD screening of NIH NCI Diversity Set V”.
In brackets after ≈: the same amount, converted by molar mass.

Assays:
Staphylococcus aureus = assay: microbe, parasite or virus in culture; settings: ATCC 43300, 18 h, ASSAY_TEST Inhibition of Bacterial Growth, detection method Absorption (OD600), MEDIA CAMHB, plate type 384well, NBS, CORNING #3640
Description: Antibacterial activity against Staphylococcus aureus MRSA ATCC 43300 (CO-ADD:GP_020); MIC in CAMBH media, using NBS plates, by OD(600)

Klebsiella pneumoniae = assay: microbe, parasite or virus in culture; settings: ATCC 700603, 18 h, ASSAY_TEST Inhibition of Bacterial Growth, detection method Absorption (OD600), MEDIA CAMHB, plate type 384well, NBS, CORNING #3640
Description: Antibacterial activity against Klebsiella pneumoniae MDR ATCC 70063 (CO-ADD:GN_003); MIC in CAMBH media using NBS plates, by OD(600)

Pseudomonas aeruginosa = assay: microbe, parasite or virus in culture; settings: ATCC 27853, 18 h, ASSAY_TEST Inhibition of Bacterial Growth, detection method Absorption (OD600), MEDIA CAMHB, plate type 384well, NBS, CORNING #3640
Description: Antibacterial activity against Pseudomonas aeruginosa ATCC 27853 (CO-ADD:GN_042); MIC in CAMBH media using NBS plates, by OD(600)

Escherichia coli = assay: microbe, parasite or virus in culture; settings: ATCC 25922, 18 h, ASSAY_TEST Inhibition of Bacterial Growth, detection method Absorption (OD600), MEDIA CAMHB, plate type 384well, NBS, CORNING #3640
Description: Antibacterial activity against Escherichia coli ATCC 25922 (CO-ADD:GN_001); MIC in CAMBH media using NBS plates, by OD(600)

Acinetobacter baumannii = assay: microbe, parasite or virus in culture; settings: ATCC 19606, 18 h, ASSAY_TEST Inhibition of Bacterial Growth, detection method Absorption (OD600), MEDIA CAMHB, plate type 384well, NBS, CORNING #3640
Description: Antibacterial activity against Acinetobacter baumannii ATCC 19606 (CO-ADD:GN_034); MIC in CAMBH media using NBS plates, by OD600

HEK293 = assay: cells; assay type: functional; settings: Homo sapiens, ATCC CRL1573, HEK293; ASSAY_TEST Inhibition of Cell Viability; detection method Resazurin; Fluorescence (ex560/em590); MEDIA DMEM with 10% FBS; plate type 384well; TC; CORNING #3712; time 18 hr
Candida albicans = assay: microbe, parasite or virus in culture; settings: ATCC 90028, ASSAY_TEST Inhibition of Fungal Growth, detection method Absorption (OD530), plate type 384well, NBS, CORNING #3640
Description: Antifungal activity against Candida albicans ATCC 90028 (CO-ADD:FG_001); MIC in YNB media using NBS plates, by OD630

Description for Cryptococcus neoformans: Antifungal activity against Cryptococcus neoformans H99 ATCC 208821 (CO-ADD:FG_002); MIC in YNB media using NBS plates, by Resazurin OD(600-570)

SMILES	MIC (Staphylococcus aureus)	MIC (Cryptococcus neoformans)	MIC (Klebsiella pneumoniae)	MIC (Pseudomonas aeruginosa)	MIC (Escherichia coli)	MIC (Acinetobacter baumannii)	CC50 (HEK293)	MIC (Candida albicans)
CCN1CCCC(Sc2nc3c(=S)n(C)c(=O)n(C)c3[nH]2)C1 (centres undefined)	> 10 µM	> 10 µM	> 10 µM	> 10 µM	> 10 µM	> 10 µM	> 10 µM	> 10 µM
CC[C@@]1(O)C(=O)OCc2c1cc1n(c2=O)Cc2cc3c(NC(=O)CN)cccc3nc2-1	> 10 µM	> 10 µM	> 10 µM	> 10 µM	> 10 µM	> 10 µM	0.6 µM	> 10 µM
Cc1c(-c2ccccc2)n(O)[n+]([O-])c1-c1ccccc1	> 10 µM	> 10 µM	> 10 µM	> 10 µM	> 10 µM	> 10 µM	> 10 µM	> 10 µM
Nc1nc(N)c2cc(Sc3ccc4ccccc4c3)ccc2n1	0.156 µM (≈ 0.0498 µg/mL)	> 10 µM	> 10 µM	> 10 µM	5 µM (≈ 1.59 µg/mL)	> 10 µM	4.64 µM	> 10 µM
O=[N+]([O-])c1ccc(-c2ccccc2)c([As](=O)(O)O)c1	> 10 µM	> 10 µM	> 10 µM	> 10 µM	> 10 µM	> 10 µM	> 10 µM	> 10 µM
CNc1ncn(-c2c(C)cccc2C)c(=O)n1	> 10 µM	> 10 µM	> 10 µM	> 10 µM	> 10 µM	> 10 µM	> 10 µM	> 10 µM
COC1CC(C)C(OC)c2cc(O)cc(c2O)NC(=O)/C(C)=C/C=C\C(C)C(OC(N)=O)/C(C)=C\C(C)C1OC (centres undefined)	> 10 µM	> 10 µM	> 10 µM	> 10 µM	> 10 µM	> 10 µM	1.09 µM	> 10 µM
CCC(C)c1cnc(CC(C)C)c(=O)n1O (centres undefined)	> 10 µM	> 10 µM	> 10 µM	> 10 µM	> 10 µM	> 10 µM	> 10 µM	> 10 µM
CC(C)=NNc1ncnc2[nH]cnc12	> 10 µM	10 µM (≈ 1.9 µg/mL)	> 10 µM	> 10 µM	> 10 µM	> 10 µM	> 10 µM	2.5 µM (≈ 0.476 µg/mL)
Cn1cnc([N+](=O)[O-])c1S(=O)(=O)Oc1cccc2ccccc12	> 10 µM	> 10 µM	> 10 µM	> 10 µM	> 10 µM	> 10 µM	8.21 µM	≤ 0.0781 µM
Cn1c2ccccc2c2ccc3c(c21)C(=O)C=CC3=O	> 10 µM	> 10 µM	> 10 µM	> 10 µM	> 10 µM	> 10 µM	> 10 µM	> 10 µM
N=C(N)NCCCS(=O)(=O)Nc1ccc(Nc2c3ccccc3nc3cc([N+](=O)[O-])ccc23)cc1	> 10 µM	> 10 µM	> 10 µM	> 10 µM	> 10 µM	> 10 µM	> 10 µM	> 10 µM
CCOC(=O)c1ccc(Nc2sc(C(=O)c3cccc([N+](=O)[O-])c3)c(N)c2C#N)cc1	> 10 µM	> 10 µM	> 10 µM	> 10 µM	> 10 µM	> 10 µM	> 10 µM	> 10 µM
Cc1c(N2CCCC2)cc2c(c1NC(=O)c1ccccc1Cl)C(C)(C)CC2(C)C	> 10 µM	> 10 µM	> 10 µM	> 10 µM	> 10 µM	> 10 µM	> 10 µM	> 10 µM
CCN(CC)c1ccc(C(=C2C=CC(=[N+](CC)CC)C=C2)c2ccc(N(CC)CC)cc2)cc1	≤ 0.0781 µM	1.25 µM	> 10 µM	2.5 µM	> 10 µM	> 10 µM	1.47 µM	≤ 0.0781 µM
COC(=O)N1C2CCCCC2=NN(c2ccccc2)N1C(=O)OC (centres undefined)	> 10 µM	> 10 µM	> 10 µM	> 10 µM	> 10 µM	> 10 µM	> 10 µM	> 10 µM
Sc1ncnc2c1ncn2C1CCCO1 (centres undefined)	> 10 µM	> 10 µM	> 10 µM	> 10 µM	> 10 µM	> 10 µM	> 10 µM	> 10 µM

SMILES	MIC (Staphylococcus aureus)	MIC (Cryptococcus neoformans)	MIC (Klebsiella pneumoniae)	MIC (Pseudomonas aeruginosa)	MIC (Escherichia coli)	MIC (Acinetobacter baumannii)	CC50 (HEK293)	MIC (Candida albicans)
Cc1ccc(NCCN(C)C)c2c(=O)c3cc(O)ccc3sc12	> 10 µM	> 10 µM	> 10 µM	> 10 µM	> 10 µM	> 10 µM	1.3 µM	> 10 µM
O=C(c1cccnc1)C1Cc2ccccc2C1=O (centres undefined)	> 10 µM	> 10 µM	5 µM (≈ 1.19 µg/mL)	> 10 µM	> 10 µM	> 10 µM	> 10 µM	> 10 µM
C=C(C)C(=O)Oc1ccc(/N=N/c2ccc(C)cc2)ccc1=O	> 10 µM	> 10 µM	> 10 µM	> 10 µM	> 10 µM	> 10 µM	> 10 µM	10 µM (≈ 3.08 µg/mL)
C/C(=N/NC(=S)N1CC2CCC(CC2)C1)c1cnccn1	> 10 µM	> 10 µM	> 10 µM	> 10 µM	> 10 µM	> 10 µM	> 10 µM	2.5 µM (≈ 0.759 µg/mL)
CC1=C(O)C(=O)C=C2C1=CC=C1[C@@]2(C)CC[C@@]2(C)[C@@H]3C[C@](C)(C(=O)O)CC[C@]3(C)CC[C@]12C [CELASTROL]	2.5 µM (≈ 1.13 µg/mL)	> 10 µM	> 10 µM	> 10 µM	> 10 µM	> 10 µM	0.837 µM	> 10 µM
Cn1ccc(=Nc2ccc(NC(=O)c3ccc(/N=c4\ccn(C)c5ccc([N+](=O)[O-])cc45)cc3)cc2)cc1	10 µM (≈ 5.05 µg/mL)	5 µM (≈ 2.52 µg/mL)	> 10 µM	> 10 µM	10 µM (≈ 5.05 µg/mL)	> 10 µM	> 10 µM	> 10 µM
Cc1cc2cc3c(O)nc(O)nc3nc2cc1C	> 10 µM	> 10 µM	> 10 µM	> 10 µM	> 10 µM	> 10 µM	> 10 µM	> 10 µM
O=C(Nc1ccc(Nc2ccncc2)cc1)c1ccc(Nc2ccnc3ccc([N+](=O)[O-])cc23)cc1	> 10 µM	2.5 µM (≈ 1.19 µg/mL)	> 10 µM	> 10 µM	> 10 µM	> 10 µM	> 10 µM	> 10 µM
SC1=NC2(CCCCCC2)NN1c1ccccc1	> 10 µM	> 10 µM	> 10 µM	> 10 µM	> 10 µM	> 10 µM	> 10 µM	> 10 µM
O=C(O)C(=O)Nc1nc[nH]n1	> 10 µM	> 10 µM	> 10 µM	> 10 µM	> 10 µM	> 10 µM	> 10 µM	> 10 µM
CC(C)c1ccc2c(c1)CCC1C(C)(CN)CCCC21C (centres undefined)	> 10 µM	> 10 µM	> 10 µM	> 10 µM	> 10 µM	> 10 µM	8.3 µM	> 10 µM
O=C(Nc1ccc(Cl)c(Cl)c1)Nc1ccc([N+](=O)[O-])cn1	> 10 µM	> 10 µM	> 10 µM	> 10 µM	> 10 µM	> 10 µM	> 10 µM	> 10 µM
O=[N+]([O-])c1ccc(/C=[N+](\[O-])CCO)o1	> 10 µM	> 10 µM	> 10 µM	> 10 µM	10 µM (≈ 2 µg/mL)	> 10 µM	> 10 µM	> 10 µM
C1C2CC3C1C3/C2=N\N=C1/C2CC3C(C2)C13	> 10 µM	> 10 µM	> 10 µM	> 10 µM	> 10 µM	> 10 µM	> 10 µM	> 10 µM
CCOC(=O)/C(C#N)=C1\SS/C(=C(/C#N)C(=O)OCC)S1	> 10 µM	> 10 µM	> 10 µM	> 10 µM	> 10 µM	> 10 µM	> 10 µM	> 10 µM
Sc1nc2cc(-c3ccccc3)ccc2o1	> 10 µM	> 10 µM	> 10 µM	> 10 µM	> 10 µM	> 10 µM	> 10 µM	> 10 µM
